Data reported in ChEMBL document CHEMBL5214954, “Identification of PI3K/HDAC Dual-targeted inhibitors with subtype selectivity as potential therapeutic agents against solid Tumors: Building HDAC6 potency in a Quinazolinone-based PI3Kδ-selective template” (Bioorg Med Chem, 2022).

What was measured:
[1] = test system: HCT-116; experiment: Antiproliferative activity against human HCT-116 cells incubated for 72 hrs by CCK-8 assay; format: functional, cell-based; conditions: HCT-116, 72 h
[2] = biological target: T1, Protein deacetylase HDAC6 (Homo sapiens, UniProt Q9UBN7)
T1 sequence (Q9UBN7 whole entry): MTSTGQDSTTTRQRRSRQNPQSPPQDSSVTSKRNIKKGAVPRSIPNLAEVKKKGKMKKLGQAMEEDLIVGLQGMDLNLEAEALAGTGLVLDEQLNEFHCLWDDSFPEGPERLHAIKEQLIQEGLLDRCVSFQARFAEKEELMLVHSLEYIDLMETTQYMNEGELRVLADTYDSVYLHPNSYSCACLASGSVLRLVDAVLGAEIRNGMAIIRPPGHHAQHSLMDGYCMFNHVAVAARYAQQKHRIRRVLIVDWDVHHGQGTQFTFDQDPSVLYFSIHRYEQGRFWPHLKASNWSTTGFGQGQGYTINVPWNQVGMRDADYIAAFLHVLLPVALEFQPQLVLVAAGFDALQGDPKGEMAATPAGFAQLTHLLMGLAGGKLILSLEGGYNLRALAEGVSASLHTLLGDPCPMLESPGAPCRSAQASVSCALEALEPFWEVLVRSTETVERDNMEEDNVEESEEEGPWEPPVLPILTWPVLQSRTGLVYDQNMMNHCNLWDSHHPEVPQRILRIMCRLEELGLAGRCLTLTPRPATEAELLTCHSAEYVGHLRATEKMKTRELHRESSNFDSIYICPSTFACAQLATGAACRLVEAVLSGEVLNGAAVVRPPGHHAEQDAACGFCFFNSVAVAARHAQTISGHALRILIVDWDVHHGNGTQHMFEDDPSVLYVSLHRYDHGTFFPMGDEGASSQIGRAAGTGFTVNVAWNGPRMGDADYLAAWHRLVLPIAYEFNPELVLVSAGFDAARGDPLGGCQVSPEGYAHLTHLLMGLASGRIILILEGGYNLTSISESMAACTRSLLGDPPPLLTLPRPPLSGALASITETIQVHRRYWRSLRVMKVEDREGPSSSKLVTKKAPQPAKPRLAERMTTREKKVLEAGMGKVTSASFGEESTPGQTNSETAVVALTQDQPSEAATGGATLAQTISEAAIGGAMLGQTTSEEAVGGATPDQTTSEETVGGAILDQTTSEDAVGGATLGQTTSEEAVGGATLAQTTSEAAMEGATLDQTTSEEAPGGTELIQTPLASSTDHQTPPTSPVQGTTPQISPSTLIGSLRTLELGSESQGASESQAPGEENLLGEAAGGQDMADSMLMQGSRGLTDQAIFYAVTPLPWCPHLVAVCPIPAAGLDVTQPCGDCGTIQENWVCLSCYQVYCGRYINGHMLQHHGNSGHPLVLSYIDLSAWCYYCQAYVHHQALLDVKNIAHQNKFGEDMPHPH
Description: Inhibition of HDAC6 (unknown origin) measured by fluorescence based assay

Structure (SMILES): N#Cc1c(N)nc(N)nc1N1CC2(CC2)C[C@H]1c1nc2cccc(Cl)c2c(=O)n1Cc1ccc(C(=O)NO)s1
- IC50 [1]: 0.8 µM
- IC50 [2]: 0.013 µM
